# Columns and labels:
# Vero cells = experiment: Viability of Vero cells exposed to SLS or DS (MTS test); details: Vero cells exposed 1 h at 37° C. to concentrations as in FIG. 1 and Table 1; data not shown
# HSV-1 (strain F) [1] = experiment: Electron microscopy of Vero cells infected with HSV-1 (strain F) pretreated with SLS; format: cell-based, Herpes simplex virus type-1
# Procedure: The appearance of HSV-1 (strain F) pretreated with varying SLS concentrations (50, 75 and 100 μM) for 1 h at 37° C. has been evaluated in Vero cells using electron microscopy. In brief, cells (80–90% confluent) were infected with the virus (approximately 70 PFU/ml in 14 ml) for 48 h at 37° C. in a 5% CO2 atmosphere. Cells were scrapped off from the dishes and resuspended in culture medium. Cells were centrifuged (515× g for 10 min at 4° C.) and the supernatant was decanted and cells were resuspended in approximately 500 μl medium. Cells were transferred in an eppendorf tube and centrifuged at (10,000× g for 5 min at 4° C.). The pellet was resuspended in approximately 200 μl of 20% bovine serum albumin (BSA). Few drops of 25% glutaraldehyde were added to the mixture and samples were immediately put in an ice bath to allow BSA polymerization. The pellet was then cut in 1 mm^3 samples which were then fixed in 2% glutaraldehyde in PBS for 1 h, 1% OsO4 in PBS for 1 h and then with 0.1% tannic acid in PBS for 30 min. Samples were rinsed 3 times in PBS for 5 min between each step. Samples were stained with 2% uranyl acetate in 10% ethanol for 30 min. Samples were dehydrated and embedded in Epon following routine procedures. Sections (approximately 75 nm thickness) were mounted on copper grid (200 mesh). […]
# HSV-1 (strain F) [2] = experiment: Infectivity of HSV-1 (strain F) to Vero cells after treatment with SLS or DS (plaque forming units); format: cell-based, Herpes simplex virus type-1; details: Vero cells preincubated 1 h at 37° C. with 6.25 to 100 μM SLS prior to infection; data not shown
# HIV-1 (strain NL4-3) = experiment: Infectivity of HIV-1 (strain NL4-3) pretreated with SLS to 1G5 cells (luciferase activity); format: cell-based; details: virus pretreated with 500 μM SLS for 1 h at 37° C.; FIG. 3
# Procedure: The effect of pretreating HIV-1 (strain NL4-3) with SLS on its infectivity to 1G5 cells, a Jurkat E6-1 derivative that harbors two stably integrated constructs made up of the luciferase gene under the control of the HIV-1SF2 LTR, has been also evaluated. In brief, prior to infection, the virus was incubated with either culture medium or 500 μM SLS for 1 h at 37° C. Cells (1×10^5 cells/well) were then incubated with HIV-1 strain NL4-3 (10 ng of p24) for 2 h at 37° C. under a 5% CO2 atmosphere. Afterwards, cells were washed, resuspended in 200 μl of complete culture medium and transferred in a 96-well flat-bottomed tissue culture plate (Microtest III, Falcon; Becton Dickinson, Lincoln Park, N.J.). After a 48 h incubation time at 37° C., cells were lysed, subject to a freeze-thaw cycle and luciferase activity was monitored using a microplate luminometer (MLX; Dynex Technologies, Chantilly, Va.).
# HSV-1 (strain F) [3] = experiment: Efficacy of SLS or DS added in overlay after infection against HSV-1 (strain F) in Vero cells (PFU); format: cell-based, Herpes simplex virus type-1; details: cells infected 2 h, compound in overlay for 2 days, FIG. 2
# Procedure: In brief, cells were infected with the virus for 2 h at 37° C. Afterwards, supernatant was removed and cells were overlaid with 0.5 ml of EMEM +2% FBS containing 0.6% agarose Seaplaque and SLS or DS at the desired concentration. Plates were then incubated for 2 days at 37° C. in a 5% CO2 atmosphere. Cells were fixed with 10% formaldehyde in PBS for 20 min, washed with deionized water and stained with 0.05% methylene blue. Viral infectivity was evaluated following the determination of PFU.
# HSV-2 (strain 22) = experiment: Murine intranasal infection model, HSV-2 pretreated with SLS; format: in vivo, Balb/c mice
# Procedure: The effect of pretreating HSV-2 (strain 22) with SLS on viral infectivity has also been evaluated in a murine intranasal infection model. In brief, female Balb/c mice (Charles River Breeding Laboratories Inc., St-Constant, QC, Canada) 4 weeks-old were used throughout this study. Prior to the infection, HSV-2 (strain 22) was incubated for 1 h at 37° C. with PBS or with different concentrations of SLS (6.25, 25 or 100 μM) to reach a final viral inoculum of 2,000 PFU/20 μl. Mice were slightly anesthetized using Aerrane® (Isoflurane, USP; Janssen, North York, ON, Canada) and viral suspension (20 μl total volume) was applied into the external left nare of mice. Mice were then returned to their cages and survival was evaluated daily.
# HSV-2 (15589) = experiment: Infectivity of HSV-2 (15589), foscarnet-resistant strain, pretreated with SLS on Vero cells (PFU); format: cell-based, Herpes simplex virus type-2
# Procedure: The effect of pretreating different strains of herpes viruses with SLS or DS on their viral infectivities to susceptible cells has been evaluated. In brief, cells were seeded in 24 well-plates (Costar, Montreal, QC, Canada). Prior to infection, the virus was either suspended in culture medium or phosphate buffered saline (PBS), or incubated with different concentrations of SLS in PBS for 1 h at 37° C. At confluency, cells were incubated with viral suspensions by centrifuging the plates (750× g for 45 min at 20° C.) to allow virus adsorption. Virus was removed and cell sheets were then overlaid with 0.5 ml of 0.6% agarose Seaplaque (Marine Colloids, Rockland, Md.) prepared in appropriate culture medium. The plates were incubated for 2 days at 37° C. Cells were then fixed with 10% formaldehyde in PBS for 20 min, washed with deionized water and stained with 0.05% methylene blue. Viral infectivity was evaluated via the determination of Plaque Forming Units (PFU).
# [4] = tested on: rabbit, bovine and human papillomaviruses; details: brief treatment with low concentrations; Howett et al., 1999; cited from earlier work
# [5] = viral suspension pretreated with 100 μM SLS
smiles,measurement,setting,value
"CCCCCCCCCCCCOS(=O)(=O)[O-].[Na+] [SLS, Sodium lauryl sulfate]","cytotoxicity (viability, MTS test)",Vero cells,No signs of cytotoxicity
same,cells with empty capsids in the nuclei (electron microscopy),HSV-1 (strain F) [1]; virus pretreated with 100 μM SLS for 1 h at 37° C.,only a few cells with empty capsids in the nuclei could be detected
same,appearance of viral particles in infected Vero cells (electron microscopy),"HSV-1 (strain F) [1]; virus pretreated with 50, 75 and 100 μM SLS for 1 h at 37° C.",No mature nucleocapsid could be observed
same,infectivity of HSV-1 (strain F) after preincubation of Vero cells (not virus) with SLS,HSV-1 (strain F) [2],did not result in a loss of infectivity
same,HIV-1 infectivity to 1G5 cells,HIV-1 (strain NL4-3),almost completely inhibited
same,concentration with complete efficacy against viral replication,HSV-1 (strain F) [3],100 µM
same,mice that survived the infection,HSV-2 (strain 22); viral inoculum pretreated with 6.25 μM SLS,67%
same,mice that survived the infection,HSV-2 (strain 22); viral inoculum pretreated with 25 μM SLS,67%
same,mice that survived the infection,HSV-2 (strain 22); [5],all
same,signs of illness,HSV-2 (strain 22); [5],did not demonstrate any sign of illness
same,PFU (% of control) for HSV-2 (15589),HSV-2 (15589); virus pretreated with 6.25 μM SLS for 1 hour at 37° C.,108.7 ± 22.2 % of control
same,PFU (% of control) for HSV-2 (15589),HSV-2 (15589); virus pretreated with 12.5 μM SLS for 1 hour at 37° C.,115.1 ± 17.5 % of control
same,PFU (% of control) for HSV-2 (15589),HSV-2 (15589); virus pretreated with 25 μM SLS for 1 hour at 37° C.,59.0 ± 4.0 % of control
same,PFU (% of control) for HSV-2 (15589),HSV-2 (15589); virus pretreated with 50 μM SLS for 1 hour at 37° C.,0 % of control
same,"effect against rabbit, bovine and human papillomaviruses (non-enveloped viruses)",[4],effective
